Test results as given in patent US9938299B2, “Glycosidase inhibitors and uses thereof” (MERCK SHARP & DOHME CORP., priority 2012, dated 2018).

molecular target: T1, human O-GlcNAcase (Homo sapiens, UniProt O60502); test: Determination of KI values for inhibition of O-GlcNAcase activity (fluorogenic 4-methylumbelliferyl GlcNAc substrate); type: biochemical; settings: not given
T1 sequence (O60502 1-916): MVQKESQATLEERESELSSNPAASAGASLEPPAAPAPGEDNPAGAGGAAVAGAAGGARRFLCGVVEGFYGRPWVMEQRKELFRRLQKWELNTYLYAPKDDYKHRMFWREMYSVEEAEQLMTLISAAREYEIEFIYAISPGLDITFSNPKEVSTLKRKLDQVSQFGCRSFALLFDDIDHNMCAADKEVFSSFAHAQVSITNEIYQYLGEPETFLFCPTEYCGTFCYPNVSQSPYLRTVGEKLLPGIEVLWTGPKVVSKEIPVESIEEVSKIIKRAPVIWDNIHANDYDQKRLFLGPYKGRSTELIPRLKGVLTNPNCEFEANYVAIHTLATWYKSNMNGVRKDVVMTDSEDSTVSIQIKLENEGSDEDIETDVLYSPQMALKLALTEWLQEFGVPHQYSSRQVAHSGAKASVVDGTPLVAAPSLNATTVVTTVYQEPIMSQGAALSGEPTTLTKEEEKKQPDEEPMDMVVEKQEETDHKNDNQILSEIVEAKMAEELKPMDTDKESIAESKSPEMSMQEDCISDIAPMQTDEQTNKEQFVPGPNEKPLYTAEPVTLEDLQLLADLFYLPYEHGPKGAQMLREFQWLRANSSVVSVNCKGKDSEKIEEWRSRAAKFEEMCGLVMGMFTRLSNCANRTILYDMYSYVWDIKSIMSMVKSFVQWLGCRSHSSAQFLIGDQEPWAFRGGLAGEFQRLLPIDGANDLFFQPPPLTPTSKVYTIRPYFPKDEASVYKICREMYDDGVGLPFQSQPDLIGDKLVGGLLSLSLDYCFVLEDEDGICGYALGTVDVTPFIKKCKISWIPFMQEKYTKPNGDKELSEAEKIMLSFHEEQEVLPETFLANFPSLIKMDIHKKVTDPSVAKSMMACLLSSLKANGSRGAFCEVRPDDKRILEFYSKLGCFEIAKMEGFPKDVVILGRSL
Protocol: Assay for Determination of […] for Inhibition of O-GlcNAcase Activity
Experimental procedure for kinetic analyses: Enzymatic reactions were carried out in a reaction containing 50 mM NaH2PO4, 100 mM NaCl and 0.1% BSA (pH 7.0) using 2 mM 4-Methylumbelliferyl N-acetyl-β-D-glucosaminide dihydrate (Sigma M2133) dissolved in ddH2O, as a substrate. The amount of purified human O-GlcNAcase enzyme used in the reaction was 0.7 nM. Test compound of varying concentrations was added to the enzyme prior to initiation of the reaction. The reaction was performed at room temperature in a 96-well plate and was initiated with the addition of substrate. […] The slope of product production was determined for each concentration of compound tested and plotted, using standard curve fitting algorithms for sigmoidal dose response curves. The values for a four parameter logistic curve fit of the data were determined.

SMILES	Ki [nM]
CNC1=N[C@@H]2[C@@H](O)[C@H](O)C(C(C)=O)O[C@@H]2S1 (stereo partly drawn) [Example 38, 1-((3aR,6S,7R,7aR)-6,7-dihydroxy-2-(methylamino)-5,6,7,7a-tetrahydro-3aH-pyrano[3,2-d]thiazol-5-yl)ethanone]	79
CCNC1=N[C@@H]2[C@@H](O)[C@H](O)[C@@H](C(=O)N(C)OC)O[C@@H]2S1 [Example 47, (3aR,5S,6S,7R,7aR)-2-(ethylamino)-6,7-dihydroxy-N-methoxy-N-methyl-5,6,7,7a-tetrahydro-3aH-pyrano[3,2-d]thiazole-5-carboxamide]	3320
CCNC1=N[C@@H]2[C@@H](O)[C@H](O)[C@@H](C(=O)N(C)C)O[C@@H]2S1 [Example 51, (3aR,5S,6S,7R,7aR)-2-(ethylamino)-6,7-dihydroxy-N,N-dimethyl-5,6,7,7a-tetrahydro-3aH-pyrano[3,2-d]thiazole-5-carboxamide]	1880
CCNC1=N[C@@H]2[C@@H](O)[C@H](O)[C@@H](C(=O)O)O[C@@H]2S1 [Example 52, (3aR,5S,6S,7R,7aR)-2-(ethylamino)-6,7-dihydroxy-5,6,7,7a-tetrahydro-3aH-pyrano[3,2-d]thiazole-5-carboxylic acid]	27
CCNC1=N[C@@H]2[C@@H](O)[C@H](O)[C@@H](C(=O)OC)O[C@@H]2S1 [Example 53, (3aR,5S,6S,7R,7aR)-N-ethyl-6,7-clihydroxy-5-(methoxycarbonyl)-5,6,7,7a-tetrahydro-3aH-pyrano[3,2-d]thiazol-2-aminium chloride]	480

same assay, conditions: purified human O-GlcNAcase 0.7 nM, 2 mM substrate, pH 7.0, room temperature; Cheng-Prusoff; read-out: Ki

SMILES	Ki [nM]
CN(C)C1=N[C@@H]2[C@@H](O)[C@H](O)[C@@H]([C@@H](O)CCc3ccccc3)O[C@@H]2S1 [Example 24, (3aR,5R,6S,7R,7aR)-2-(dimethylamino)-5-((S)-1-hydroxy-3-phenylpropyl)-5,6,7,7a-tetrahydro-3aH-pyrano[3,2-d]thiazole-6,7-diol]	15
CN(C)C1=N[C@@H]2[C@@H](O)[C@H](O)[C@@H]([C@](O)(Cc3ccccc3)C(F)(F)F)O[C@@H]2S1 [Example 25, (3aR,5S,6S,7R,7aR)-2-(dimethylamino)-5-((R)-1,1,1-trifluoro-2-hydroxy-3-phenylpropan-2-yl)-5,6,7,7a-tetrahydro-3aH-pyrano[3,2-d]thiazole-6,7-diol]	338
CN(C)C1=N[C@@H]2[C@@H](O)[C@H](O)[C@@H]([C@@](O)(Cc3ccccc3)C(F)(F)F)O[C@@H]2S1 [Example 26, (3aR,5S,6S,7R,7aR)-2-(dimethylamino)-5-(1,1,1-trifluoro-2-hydroxy-3-phenylpropan-2-yl)-5,6,7,7a-tetrahydro-3aH-pyrano[3,2-d]thiazole-6,7-diol]	66
COc1ccc(CC[C@](O)([C@H]2O[C@@H]3SC(N(C)C)=N[C@@H]3[C@@H](O)[C@@H]2O)C(F)(F)F)cc1 [Example 30, (3aR,5S,6S,7R,7aR)-2-(dimethylamino)-5-(1,1,1-trifluoro-2-hydroxy-4-(4-methoxyphenyl)butan-2-yl)-5,6,7,7a-tetrahydro-3aH-pyrano[3,2-d]thiazole-6,7-diol]	142
CNC1=N[C@@H]2[C@@H](O)[C@H](O)[C@@H](CC#N)O[C@@H]2S1 [Example 31, 2-((3aR,5R,6S,7R,7aR)-6,7-dihydroxy-2-(methylamino)-5,6,7,7a-tetrahydro-3aH-pyrano[3,2-d]thiazol-5-yl)acetonitrile]	1.08
C=CCNC1=N[C@@H]2[C@@H](O)[C@H](O)[C@@H](CC#N)O[C@@H]2S1 [Example 32, 2-((3aR,5R,6S,7R,7aR)-2-(allylamino)-6,7-dihydroxy-5,6,7,7a-tetrahydro-3aH-pyrano[3,2-d]thiazol-5-yl)acetonitrile]	130
CN(C)C(=O)CC[C@H]1O[C@@H]2SC(N(C)C)=N[C@@H]2[C@@H](O)[C@@H]1O [Example 33, 3-((3aR,5R,6S,7R,7aR)-2-(dimethylamino)-6,7-dihydroxy-5,6,7,7a-tetrahydro-3aH-pyrano[3,2-d]thiazol-5-yl)-N,N-dimethylpropanamide]	311
CNC(=O)[C@H]1O[C@@H]2SC(NC)=N[C@@H]2[C@@H](O)[C@@H]1O [Example 35, (3aR,5 S,6S,7R,7aR)-6,7-dihydroxy-N-methyl-2-(methylamino)-5,6,7,7a-tetrahydro-3aH-pyrano[3,2-d]thiazole-5-carboxamide]	845
CNC1=N[C@@H]2[C@@H](O)[C@H](O)[C@@H](C(=O)O)O[C@@H]2S1 [Example 36, (3aR,5S,6S,7R,7aR)-6,7-dihydroxy-2-(methylamino)-5,6,7,7a-tetrahydro-3aH-pyrano[3,2-d]thiazole-5-carboxylic acid]	5.5
CNC1=N[C@@H]2[C@@H](O)[C@H](O)[C@@H](C(=O)OC)O[C@@H]2S1 [Example 37, (3aR,5S,6S,7R,7aR)-methyl 6,7-dihydroxy-2-(methylamino)-5,6,7,7a-tetrahydro-3aH-pyrano[3,2-d]-thiazole-5-carboxylate]	68
CNC1=N[C@@H]2[C@@H](O)[C@H](O)[C@@H](CCl)O[C@@H]2S1 [Example 39, (3aR,5 S,6S,7R,7aR)-5-(chloromethyl)-2-(methylamino)-5,6,7,7a-tetrahydro-3aH-pyrano[3,2-d]thiazole-6,7-diol]	0.075
CNC1=N[C@@H]2[C@@H](O)[C@H](O)[C@@H](CCN)O[C@@H]2S1 [Example 40, (3aR,5R,6S,7R,7aR)-5-(2-aminoethyl)-2-(methylamino)-5,6,7,7a-tetrahydro-3aH-pyrano[3,2-d]thiazole-6,7-diol]	24
CNCC[C@H]1O[C@@H]2SC(NC)=N[C@@H]2[C@@H](O)[C@@H]1O [Example 41, (3aR,5R,6S,7R,7aR)-2-(methylamino)-5-(2-(methylamino)ethyl)-5,6,7,7a-tetrahydro-3aH-pyrano[3,2-d]thiazole-6,7-diol]	8.4
CNC1=N[C@@H]2[C@@H](O)[C@H](O)[C@@H](C(=O)NC3CC3)O[C@@H]2S1 [Example 42, (3aR,5S,6S,7R,7aR)-N-cyclopropyl-6,7-dihydroxy-2-(methylamino)-5,6,7,7a-tetrahydro-3aH-pyrano[3,2-d]thiazole-5-carboxamide]	987
CNC1=N[C@@H]2[C@@H](O)[C@H](O)[C@@H](C(=O)NC(C)C)O[C@@H]2S1 [Example 43, (3aR,5S,6S,7R,7aR)-6,7-dihydroxy-N-isopropyl-2-(methylamino)-5,6,7,7a-tetrahydro-3aH-pyrano[3,2-d]thiazole-5-carboxamide]	588
CCNC(=O)[C@H]1O[C@@H]2SC(NC)=N[C@@H]2[C@@H](O)[C@@H]1O [Example 44, (3aR,5S,6S,7R,7aR)-N-ethy1-6,7-dihydroxy-2-(methylamino)-5,6,7,7a-tetrahydro-3aH-pyrano[3,2-d]thiazole-5-carboxamide]	1430
CCN(CC)C(=O)[C@H]1O[C@@H]2SC(NC)=N[C@@H]2[C@@H](O)[C@@H]1O [Example 45, (3aR,5S,6S,7R,7aR)-N,N-diethyl-6,7-dihydroxy-2-(methylamino)-5,6,7,7a-tetrahydro-3aH-pyrano[3,2-d]thiazole-5-carboxamide]	2500
CCNC1=N[C@@H]2[C@@H](O)[C@H](O)[C@@H](C(=O)NC3CC3)O[C@@H]2S1 [Example 46, (3aR,5S,6S,7R,7aR)-N-cyclopropyl-2-(ethylamino)-6,7-dihydroxy-5,6,7,7a-tetrahydro-3aH-pyrano[3,2-d]thiazole-5-carboxamide]	1960
CCNC1=N[C@@H]2[C@@H](O)[C@H](O)[C@@H](C(=O)NC)O[C@@H]2S1 [Example 48, (3aR,5S,6S,7R,7aR)-2-(ethylamino)-6,7-dihydroxy-N-methyl-5,6,7,7a-tetrahydro-3aH-pyrano[3,2-d]thiazole-5-carboxamide]	370
CCNC1=N[C@@H]2[C@@H](O)[C@H](O)[C@@H](C(=O)NC(C)C)O[C@@H]2S1 [Example 49, (3aR,5S,6S,7R,7aR)-2-(ethylamino)-6,7-dihydroxy-N-isopropyl-5,6,7,7a-tetrahydro-3aH-pyrano[3,2-d]thiazole-5-carboxamide]	142
CCNC(=O)[C@H]1O[C@@H]2SC(NCC)=N[C@@H]2[C@@H](O)[C@@H]1O [Example 50, (3aR,5S,6S,7R,7aR)-N-ethyl-2-(ethylamino)-6,7-dihydroxy-5,6,7,7a-tetrahydro-3aH-pyrano[3,2-d]thiazole-5-carboxamide]	2880
